# From ChEMBL document CHEMBL3885861, “Open TG-GATES”
# Organism: Rattus norvegicus
# Assay: Open TG-GATES - Regimen: Single
# Format: toxicity, organism-based, Sprague-Dawley
# Design: regimen Single, gender Male, age 6 weeks
# Settings: in vivo, po, 20 mg/kg, route gavage, dose level Low; for APTT / Bas / Eos / Fbg / Hb / Ht / Lym / MCH / MCHC / MCV / Mono / Neu / PT / Plat / RBC / Ret / WBC: tissue Blood; for KIDNEY_L / KIDNEY_R / KIDNEY_TOTAL: tissue Kidney; for LIVER: tissue Liver; for A/G / ALP / ALT / AST / BUN / CRE / Ca / Cl / DBIL / GLC / IP / K / LDH / Na / PL / RALB / TBIL / TC / TG / TP / gamma-GTP: tissue Plasma
structure (smiles),measurement,setting,value
CC(CN1c2ccccc2Sc2ccccc21)N(C)C (configuration not stated) [PROMETHAZINE],TERMINAL_BW,3 h,208 g
same,APTT,3 h,23.7 s
same,Bas,3 h,0%
same,Eos,3 h,0.6%
same,Fbg,3 h,325.8 mg/dL
same,Hb,3 h,13.5 g/dL
same,Ht,3 h,41.2%
same,Lym,3 h,81.4%
same,MCH,3 h,20.7 pg
same,MCHC,3 h,32.7%
same,MCV,3 h,63.3 fL
same,Mono,3 h,2.2%
same,Neu,3 h,15.4%
same,PT,3 h,16.4 s
same,Plat,3 h,114.7 x10_4/uL
same,RBC,3 h,651.2 x10_4/ul
same,Ret,3 h,8.2%
same,WBC,3 h,78 x10_2/uL
same,KIDNEY_L,3 h,0.9 g
same,KIDNEY_R,3 h,0.9 g
same,KIDNEY_TOTAL,3 h,1.8 g
same,LIVER,3 h,9.2 g
same,A/G,3 h,1.2
same,ALP,3 h,1475 IU/L
same,ALT,3 h,53.2 IU/L
same,AST,3 h,73.6 IU/L
same,BUN,3 h,10.6 mg/dL
same,CRE,3 h,0.2 mg/dL
same,Ca,3 h,10.5 mg/dL
same,Cl,3 h,105.8 meq/L
same,DBIL,3 h,0.018 mg/dL
same,GLC,3 h,177.8 mg/dL
same,IP,3 h,9.1 mg/dL
same,K,3 h,4.3 meq/L
same,LDH,3 h,202.2 IU/L
same,Na,3 h,142.4 meq/L
same,PL,3 h,140.2 mg/dL
same,RALB,3 h,2.9 g/dL
same,TBIL,3 h,0.02 mg/dL
same,TC,3 h,82 mg/dL
same,TG,3 h,60.4 mg/dL
same,TP,3 h,5.4 g/dL
same,gamma-GTP,3 h,1.2 IU/L
same,TERMINAL_BW,6 h,211.9 g
same,APTT,6 h,22.9 s
same,Bas,6 h,0%
same,Eos,6 h,0.6%
same,Fbg,6 h,315 mg/dL
same,Hb,6 h,13.2 g/dL
same,Ht,6 h,40%
same,Lym,6 h,83.4%
same,MCH,6 h,20.5 pg
same,MCHC,6 h,33.1%
same,MCV,6 h,62.1 fL
same,Mono,6 h,2.2%
same,Neu,6 h,13.2%
same,PT,6 h,16.9 s
same,Plat,6 h,118.2 x10_4/uL
same,RBC,6 h,644.8 x10_4/ul
same,Ret,6 h,7.8%
same,WBC,6 h,108.7 x10_2/uL
same,KIDNEY_L,6 h,0.9 g
same,KIDNEY_R,6 h,1 g
same,KIDNEY_TOTAL,6 h,1.9 g
same,LIVER,6 h,9 g
same,A/G,6 h,1.3
same,ALP,6 h,1313.4 IU/L
same,ALT,6 h,41.2 IU/L
same,AST,6 h,72.2 IU/L
same,BUN,6 h,10.4 mg/dL
same,CRE,6 h,0.2 mg/dL
same,Ca,6 h,10.9 mg/dL
same,Cl,6 h,105.4 meq/L
same,DBIL,6 h,0.014 mg/dL
same,GLC,6 h,178.8 mg/dL
same,IP,6 h,9.7 mg/dL
same,K,6 h,4.3 meq/L
same,LDH,6 h,161 IU/L
same,Na,6 h,141.4 meq/L
same,PL,6 h,131.2 mg/dL
same,RALB,6 h,3.1 g/dL
same,TBIL,6 h,0.03 mg/dL
same,TC,6 h,76.2 mg/dL
same,TG,6 h,69.8 mg/dL
same,TP,6 h,5.5 g/dL
same,gamma-GTP,6 h,1.2 IU/L
same,TERMINAL_BW,9 h,213 g
same,APTT,9 h,22.5 s
same,Bas,9 h,0%
same,Eos,9 h,0.4%
same,Fbg,9 h,311.4 mg/dL
same,Hb,9 h,13 g/dL
same,Ht,9 h,39.2%
same,Lym,9 h,77.8%
same,MCH,9 h,20.2 pg
same,MCHC,9 h,33%
same,MCV,9 h,61.3 fL
same,Mono,9 h,2%
same,Neu,9 h,18.6%
same,PT,9 h,16.8 s
same,Plat,9 h,119.8 x10_4/uL
same,RBC,9 h,639.8 x10_4/ul
same,Ret,9 h,7.2%
same,WBC,9 h,108 x10_2/uL
same,KIDNEY_L,9 h,1 g
same,KIDNEY_R,9 h,1 g
same,KIDNEY_TOTAL,9 h,1.9 g
same,LIVER,9 h,8.6 g
same,A/G,9 h,1.2
same,ALP,9 h,1421.2 IU/L
same,ALT,9 h,43.4 IU/L
same,AST,9 h,69 IU/L
same,BUN,9 h,11.4 mg/dL
same,CRE,9 h,0.2 mg/dL
same,Ca,9 h,10.9 mg/dL
same,Cl,9 h,105 meq/L
same,DBIL,9 h,0.008 mg/dL
same,GLC,9 h,183.8 mg/dL
same,IP,9 h,10.2 mg/dL
same,K,9 h,4.3 meq/L
same,LDH,9 h,152.8 IU/L
same,Na,9 h,140.8 meq/L
same,PL,9 h,123.2 mg/dL
same,RALB,9 h,2.9 g/dL
same,TBIL,9 h,0.018 mg/dL
same,TC,9 h,72.2 mg/dL
same,TG,9 h,51.4 mg/dL
same,TP,9 h,5.4 g/dL
same,gamma-GTP,9 h,1.4 IU/L
same,TERMINAL_BW,24 h,220.8 g
same,APTT,24 h,22.2 s
same,Bas,24 h,0%
same,Eos,24 h,0.8%
same,Fbg,24 h,317.2 mg/dL
same,Hb,24 h,13.4 g/dL
same,Ht,24 h,39.8%
same,Lym,24 h,79.8%
same,MCH,24 h,20.8 pg
same,MCHC,24 h,33.6%
same,MCV,24 h,62 fL
same,Mono,24 h,2.4%
same,Neu,24 h,16.4%
same,PT,24 h,16.6 s
same,Plat,24 h,117.2 x10_4/uL
same,RBC,24 h,643.4 x10_4/ul
same,Ret,24 h,7.2%
same,WBC,24 h,125.3 x10_2/uL
same,KIDNEY_L,24 h,0.9 g
same,KIDNEY_R,24 h,0.9 g
same,KIDNEY_TOTAL,24 h,1.9 g
same,LIVER,24 h,10.1 g
same,A/G,24 h,1.3
same,ALP,24 h,1645.6 IU/L
same,ALT,24 h,49.8 IU/L
same,AST,24 h,76 IU/L
same,BUN,24 h,17.4 mg/dL
same,CRE,24 h,0.2 mg/dL
same,Ca,24 h,11 mg/dL
same,Cl,24 h,106 meq/L
same,DBIL,24 h,0 mg/dL
same,GLC,24 h,188 mg/dL
same,IP,24 h,6.8 mg/dL
same,K,24 h,4.1 meq/L
same,LDH,24 h,154 IU/L
same,Na,24 h,142.6 meq/L
same,PL,24 h,146.2 mg/dL
same,RALB,24 h,3.1 g/dL
same,TBIL,24 h,0.002 mg/dL
same,TC,24 h,78.2 mg/dL
same,TG,24 h,109.2 mg/dL
same,TP,24 h,5.5 g/dL
same,gamma-GTP,24 h,1.6 IU/L
